The text below walks through data of ChEMBL document CHEMBL1147248, “A new acylated oleanane triterpenoid from Couepia polyandra that inhibits the lyase activity of DNA polymerase beta” (J Nat Prod, 2003).

As a reminder, the IC50 is the midpoint of a concentration-inhibition curve. Higher therefore signals weaker potency in that assay.

This assay addresses DNA polymerase beta (Homo sapiens, UniProt P06746). The assay is described as follows: Inhibition of DNA polymerase beta lyase activity by deoxyribose phosphate excision assay.
The compound `CC(=O)OC[C@@]1(C)[C@@H]2CC[C@]3(C)[C@H](CC=C4[C@@H]5CC(C)(C)CC[C@]5(C(=O)O)[C@@H](OC(C)=O)C[C@]43C)[C@@]2(C)CC[C@@H]1OC(C)=O` yielded an IC50 of 13 µM.
`CC[C@H](CC[C@@H](C)[C@H]1CC[C@H]2[C@@H]3CC=C4C[C@@H](O)CC[C@]4(C)[C@H]3CC[C@]12C)C(C)C` [BETA-SITOSTEROL] registered an IC50 of 26.3 µM.
Next, `CC1(C)CC[C@]2(C(=O)O)CC[C@]3(C)C(=CC[C@@H]4[C@@]5(C)CC[C@H](O)C(C)(C)[C@@H]5CC[C@]43C)[C@@H]2C1` [OLEANOLIC_ACID]: 8.8 µM; `CC[C@H](/C=C/[C@@H](C)[C@H]1CC[C@H]2[C@@H]3CC=C4C[C@@H](O)CC[C@]4(C)[C@H]3CC[C@]12C)C(C)C` [STIGMASTEROL]: 43.4 µM.
